From patent US20080131511A1, “Pharmaceutical Composition for Treatment of Tear and Salivary Fluid Drying” (Astellas Pharma, Inc., priority 2004, published 2008)

Columns and labels:
Assay type in all cases: in vivo, mouse (male Balb/c)
[1] = tested on: salivary gland; assay: Salivary fluid secretion after subcutaneous bolus administration; conditions: mice; for dose at which statistically significant acceleration of salivary fluid secretion was attained / time after administration at which secretion amount of salivary and tear fluid reached maximum: s.c. bolus; for time after administration at which secretion amount of salivary and tear fluid reached maximum: every dose
Description: (§1) Male Balb/c mice were used in the test.
(§2) The compound A was dissolved in physiological saline to a concentration of 1, 3, 10, 30 or 100 mg/5 ml, and 5 ml/kg of the drug solution was administered under the dorsal skin. Secreted amounts of salivary and tear fluid were measured just before the administration of compound A and 10, 20, 30, 40 and 50 minutes after the administration. The sweating action was measured 10 minutes after the administration. Also, the growth acceleration action was measured 6 hours after the administration.
as §2, with “Pilocarpine was dissolved” for “The compound A was dissolved”, “concentration of 0.03, 0.1, 0.3, 1, 3 or 10 mg/5 ml, or cevimeline to a concentration of 0.3, 1, 3,” for “concentration of 1, 3,”, “administration of pilocarpine or cevimeline and 10,” for “administration of compound A and 10,”
(§3) The mouth of a mouse was wiped with a cotton ball whose weight had been measured in advance, and the incremental weight was used as the amount of salivary fluid. Also at the same time, a thread for tear fluid measurement (Zone Quick; Menicon) used on the Schirmer test was inserted into the lower eyelid conjunctival sac, and the length of colored part was measured and used as the amount of tear fluid. From the measurement results, area under the secreted amount-versus-time curve (AUC) was calculated.
(§4) All of the test results were expressed as fold increases of the reactions of the drug-administered group versus those of the vehicle-administered group, and comparison between the drug-administered groups and the vehicle-administered group was carried out using Dunnett's t-test. P<0.05 was considered significant. Results

[2] = tested on: lacrimal gland; assay: Tear fluid secretion after subcutaneous bolus administration; conditions: mice; for dose at which statistically significant acceleration of tear fluid secretion was attained: s.c. bolus
Description: as §1, §2
as §2, with “Pilocarpine was dissolved” for “The compound A was dissolved”, “concentration of 0.03, 0.1, 0.3, 1, 3 or 10 mg/5 ml, or cevimeline to a concentration of 0.3, 1, 3,” for “concentration of 1, 3,”, “administration of pilocarpine or cevimeline and 10,” for “administration of compound A and 10,”
as §3, §4

[3] = tested on: salivary gland; assay: Salivary fluid secretion during subcutaneous continuous administration (osmotic pump); conditions: mice; for dose showing statistically significant salivary fluid secretion acceleration: cumulative quantity vs vehicle group; for Salivary fluid: AUC of secreted amount
Description: as §1
(§5) The compound A was dissolved in physiological saline to a concentration of 0.625, 1.25, 2.5, 5.0, 10 or 20 mg/200 μl, and filled each pump (Alzet mini-osmotic pump 2001D, 8 μl/h, 1 day; DURECT Corporation) with about 200 μl portions It means, that is, each pump releases at a rate of 0.025, 0.05, 0.1, 0.2, 0.4 or 0.8 mg compound A/h, respectively. About 5 mm of dorsal epidermis of a mouse anesthetized with diethyl ether was incised, the osmotic pump already filled with the compound A was subcutaneously implanted, and then the skin was stitched. Secreted amounts of salivary and tear fluid and sweating were periodically measured from just before the implantation of pump until 32 hours after the administration. The ornithine decarboxylase activity was measured 10 hours after the implantation.
(§6) Pilocarpine was dissolved in physiological saline to a concentration of 0.039, 0.078, 0.16 or 0.31 mg/200 μl, or cevimeline to a concentration of 0.16, 0.31, 0.63 or 1.3 mg/200 μl, and filled the osmotic pump (Alzet mini-osmotic pump 2001 D, 8 μl/h, 1 day; DURECT Corporation) with about 200 μl portions. It means, that is, each pump releases at a rate of 0.00156, 0.00312, 0.0064 or 0.0124 mg/h (pilocarpine) or 0.0064, 0.0124, 0.0252 or 0.05 mg/h (cevimeline). About 5 mm of dorsal epidermis of a mouse anesthetized with diethyl ether was incised, the osmotic pump already filled with pilocarpine or cevimeline was subcutaneously implanted, and then the skin was stitched. Secreted amounts of salivary and tear fluid and sweating were periodically measured from just before the implantation of pump until 32 hours after the administration. The ornithine decarboxylase activity was measured 10 hours after the implantation.
as §3, §4

[4] = tested on: lacrimal gland; assay: Tear fluid secretion during subcutaneous continuous administration (osmotic pump); conditions: mice; for Tear fluid: AUC of secreted amount
Description: as §1, §5, §6, §3, §4

[5] = tested on: ornithine decarboxylase (ODC) activity of parotid salivary gland; assay: Ornithine decarboxylase activity of parotid salivary gland, subcutaneous continuous administration; conditions: mice; for Glandular cell growth Salivary gland: ODC activity 10 hours after implantation
Description: as §1, §5, §6
Thus, it can be easily analogized that the ODC activity becomes a useful index of cell growth and function of the exocrine gland. Accordingly, the ability of each drug to activate glandular tissue was evaluated by measuring ODC activity of parotid salivary gland and extra-orbital lacrimal gland.
The amount of ^14CO2 formed from L-^14C-ornithine was used as the index of ODC activity.
A mouse anesthetized with diethyl ether was sacrificed by bleeding, and left and right parotid salivary glands and extra-orbital lacrimal glands were isolated. After removing the attached connective tissue and fat, the isolated glandular tissues homogenized in 1.5 ml of a homogenate buffer (25 mM Tris-HCl buffer (pH 7.4) containing 0.1 mM ethylenediaminetetraacetic acid, 0.4 mM pyridoxal phosphate, 5 mM dithiothreitol and 0.1% Brij 35®) using a Potter type homogenizer and then centrifuged at 4° C., 15,000 g for 30 minutes, and the supernatant was used as the enzyme fraction. Reaction of the enzyme and substrate was carried out by adding 100 μl of a substrate solution (the homogenate buffer containing 300 μM DL-ornithine and 5 μCi L-^14C-ornithine) to 900 μl of the enzyme liquid whose protein concentration had been adjusted to 2.5 mg/ml and incubating at 37° C. for 1 hour in a sealed tube, and the reaction was terminated by the addition of 100 μl of 2 M H2SO4. The ^14CO2 generated by the reaction was captured by 150 μl of 1 N NaOH soaked in a glass filter. Radioactivity of the ^14CO2 captured on the glass filter was detected using a liquid scintillation counter. The enzyme activity (pmol ^14CO2/mg protein/hour) was calculated from the measured results.
as §4

[6] = s.c. bolus 1 mg/kg, 10 minutes after administration
[7] = s.c. bolus 3 mg/kg, 10 minutes after administration
[8] = s.c. bolus 10 mg/kg, 10 minutes after administration
[9] = 10 minutes after administration
[10] = s.c. osmotic pump 0.63 mg (0.025 mg/h)
[11] = s.c. osmotic pump 1.25 mg (0.05 mg/h)
[12] = s.c. osmotic pump 2.5 mg (0.1 mg/h)
[13] = s.c. osmotic pump 5 mg (0.2 mg/h)
[14] = s.c. osmotic pump 10 mg (0.4 mg/h)
[15] = s.c. bolus 0.3 mg/kg, 10 minutes after administration (Table 4)
[16] = s.c. bolus 1 mg/kg, 10 minutes after administration (Table 4)
[17] = s.c. bolus 3 mg/kg, 10 minutes after administration (Table 4)
[18] = s.c. bolus 10 mg/kg, 10 minutes after administration (Table 4)
[19] = s.c. osmotic pump 0.16 mg (0.0064 mg/h)
[20] = s.c. osmotic pump 0.31 mg (0.0124 mg/h)
[21] = s.c. osmotic pump 0.63 mg (0.0252 mg/h)
[22] = s.c. osmotic pump 1.25 (0.05 mg/h)

In the case of `C=C1CC2(CCN(C)CC2)O[C@H]1C` [compound A, (−)-(S)-2,8-dimethyl-3-methylene-1-oxa-8-azaspiro[4.5]decane], the Salivary fluid [1, 6] is reported as 1.5 ± 0.10 fold increase vs. the vehicle group, the Salivary fluid [1, 7] is reported as 1.8 ± 0.13 fold increase vs. the vehicle group and the Salivary fluid [1, 8] is reported as 3.3 ± 1.1 fold increase vs. the vehicle group. For the same molecule, the “dose at which statistically significant acceleration of salivary fluid secretion was attained” value [1, 9] was 10 mg/kg, the “time after administration at which secretion amount of salivary and tear fluid reached maximum” value [1] was 10 min and the Tear fluid [2, 6] was 1.3 ± 0.11 fold increase vs. the vehicle group. The Tear fluid [2, 7] was 1.4 ± 0.15 fold increase vs. the vehicle group, the Tear fluid [2, 8] was 2.2 ± 0.25 fold increase vs. the vehicle group and the “dose at which statistically significant acceleration of tear fluid secretion was attained” value [2, 9] was 10 mg/kg. The “dose at which salivary fluid secretion acceleration action reached maximum” value ([3]; s.c. continuous administration) was 5 mg, the “time after osmotic pump implantation at which secreted amount of tear and salivary fluid became maximum” value ([3]; s.c. continuous administration) was 10 h and the “time after osmotic pump implantation at which secreted amount of tear and salivary fluid started to increase” value ([3]; s.c. continuous administration) was 4 h. The “time after which secretion acceleration action almost disappeared” value ([3]; s.c. continuous administration) was 32 h, the “time until which increased secretion of tear and salivary fluid continued” value ([3]; s.c. continuous administration) was 26 h and the “dose showing statistically significant salivary fluid secretion acceleration” value ([3]; s.c. continuous administration) was at least 2.5 mg. The Salivary fluid [3, 10] was 0.84 ± 0.11 fold increase vs. the vehicle group, the Salivary fluid [3, 11] was 1.4 ± 0.11 fold increase vs. the vehicle group and the Salivary fluid [3, 12] was 2.1 ± 0.13 fold increase vs. the vehicle group. For the same molecule, the Salivary fluid [3, 13] was 2.8 ± 0.21 fold increase vs. the vehicle group, the Salivary fluid [3, 14] was 3.4 ± 0.35 fold increase vs. the vehicle group and the “dose at which tear fluid secretion acceleration action reached maximum” value ([4]; s.c. continuous administration) was 5 mg. For the same molecule, the “dose showing statistically significant tear fluid secretion acceleration” value ([4]; s.c. continuous administration, cumulative quantity vs vehicle group) was at least 2.5 mg, the Tear fluid [4, 10] was 1.3 ± 0.11 fold increase vs. the vehicle group and the Tear fluid [4, 11] was 1.3 ± 0.011 fold increase vs. the vehicle group. For the same molecule, the Tear fluid [4, 12] was 1.9 ± 0.10 fold increase vs. the vehicle group, the Tear fluid [4, 13] was 2.3 ± 0.08 fold increase vs. the vehicle group and the Tear fluid [4, 14] was 1.6 ± 0.08 fold increase vs. the vehicle group. For the same molecule, the “Glandular cell growth Salivary gland” value [5, 11] was 1.56 ± 0.33 fold increase vs. the vehicle group, the “Glandular cell growth Salivary gland” value [5, 12] was 6.9 ± 2.3 fold increase vs. the vehicle group and the “Glandular cell growth Salivary gland” value [5, 13] was 9.6 ± 1.8 fold increase vs. the vehicle group. For the same molecule, the “Glandular cell growth Salivary gland” value [5, 14] was 9.8 ± 2.6 fold increase vs. the vehicle group.

With `CC1OC2(CS1)CN1CCC2CC1` (stereo not drawn) [cevimeline] the Salivary fluid [1, 15] was 1.2 ± 0.13 fold increase vs. the vehicle group, the Salivary fluid [1, 16] was 2.0 ± 0.22 fold increase vs. the vehicle group and the Salivary fluid [1, 17] was 2.1 ± 0.42 fold increase vs. the vehicle group. The Salivary fluid [1, 18] was 3.1 ± 0.50 fold increase vs. the vehicle group, the “dose at which statistically significant acceleration of salivary fluid secretion was attained” value [1, 9] was 3 mg/kg and the “time after administration at which secretion amount of salivary and tear fluid reached maximum” value [1] was 10 min. The Tear fluid [2, 15] was 1.1 ± 0.14 fold increase vs. the vehicle group, the Tear fluid [2, 16] was 1.1 ± 0.14 fold increase vs. the vehicle group and the Tear fluid [2, 17] was 1.1 ± 0.16 fold increase vs. the vehicle group. For the same molecule, the Tear fluid [2, 18] was 3.6 ± 0.88 fold increase vs. the vehicle group, the “dose at which statistically significant acceleration of tear fluid secretion was attained” value [2, 9] was 10 mg/kg and the “dose showing statistically significant salivary fluid secretion acceleration” value ([3]; s.c. continuous administration) was 0.63 mg. For the same molecule, the Salivary fluid [3, 19] was 0.98 ± 0.10 fold increase vs. the solvent group, the Salivary fluid [3, 20] was 1.0 ± 0.12 fold increase vs. the solvent group and the Salivary fluid [3, 21] was 1.5 ± 0.11 fold increase vs. the solvent group. For the same molecule, the Salivary fluid [3, 22] was 1.7 ± 0.17 fold increase vs. the solvent group, the Tear fluid [4, 19] was 1.3 ± 0.05 fold increase vs. the solvent group and the Tear fluid [4, 20] was 1.1 ± 0.09 fold increase vs. the solvent group. The Tear fluid [4, 21] was 1.4 ± 0.18 fold increase vs. the solvent group, the Tear fluid [4, 22] was 1.3 ± 0.04 fold increase vs. the solvent group and the “glandular cell ODC activity acceleration action” value ([5]; s.c. continuous administration) was “not confirmed even at 1.25 mg”. For the same molecule, the “Glandular cell growth Salivary gland” value [5, 21] was 0.87 ± 0.05 fold increase vs. the solvent group and the “Glandular cell growth Salivary gland” value [5, 22] was 0.45 ± 0.12 fold increase vs. the solvent group.
